The test system of one assay is hyperphosphorylated tau. As to the kind of experiment: Hyperphosphorylated tau (AT8 immunofluorescence) in primary neurons treated with AAV-hTauP301L. In kind it is cell-based, mouse. The following applies: treatment every other day for 8 days, compound 1 at 30 µM.
Assay [1] deals with primary rat glial cultures. Put plainly: Anti-neuroinflammatory screening in LPS-treated primary glial cultures (Griess, normalized by MTT). In kind it is cell-based. The following applies: % reduction of nitrites, LPS alone = 100 % inflammation, read-out: Anti-neuro inflammatory effect at 3 µM (%). As for the experimental part: Screening for anti-inflammatory properties in primary rat glial cultures was performed according to the protocol described previously [Gameiro, Isabel et al. "Discovery of the first dual GSK3β inhibitor/Nrf2 inducer. A new multitarget therapeutic strategy for Alzheimer's disease." Scientific reports vol. 7 45701. 31 Mar. 2017, doi:10.1038/srep45701]. All compounds were evaluated at the single concentration of 3 µM. Neuroinflammation was quantified as the value of released […], measured by the Griess method, normalized by the number of viable cells measured by the MTT method [Mosmann, T. "Rapid colorimetric assay for cellular growth and survival: application to proliferation and cytotoxicity assays." Journal of immunological methods vol. 65, 1-2 (1983): 55-63. doi:10.1016/0022-1759(83)90303-4]. LPS alone was considered 100 % inflammation.
Based on the results obtained (Table 2), Compound 1 was selected for further in vitro and in vivo studies as it was endowed with the best anti-neuroinflammatory activity. Table 2: Comparative in vitro results. Cell viability/toxicity: effect of the compound per se on cell viability of […] cells measured with the MTT method. Anti-neuroinflammatory effect: % Reduction of nitrites in primary rat glial cultures. PAMPA-BBB: In vitro blood-brain barrier permeation assay, permeation rate Pe (10-6 cm.s-1). NRF2, CD (µM): Concentration of compound that doubles de activation of NRF2. ORAC: Oxygen radical absorbance capacity. LOX-5: lipoxygenase-5.
On the technique in general: Nitrite, measured by Griess reagent, commonly stands in for NO production.

A further assay relates to BV2 cells. As to the kind of experiment: Nitric oxide detection with DAF in LPS-exposed BV2 cells. The format is cell-based, mouse. Particulars: 24 h LPS. The protocol:
• Figure 1. Compound 1 reduces the inflammatory response against LPS in vitro. (A) Nitric oxide (NO) production in BV2 cells detected by DAF 24 h after LPS exposure and normalized by cell viability measured by MTT (n = 9). (B) qRT-PCR of TNFα (n = 9) in BV2 cells after 24 h LPS exposure. Sulforaphane (Sfn) was used as a positive control. […] Compound 1 decreases the inflammatory process 4 and 24 hours after LPS administration in vivo. Compound 1 (20 mg·kg^-1) daily was injected i.p. four days before the i.p. LPS (0.5 mg·kg^-1) administration. […] Compound 1 ameliorates the resolution of the inflammatory process triggered by LPS. […] (B) Locomotion activity measured by line crossings of an imaginary grid. […] Compound 1 reduced tau seeding in HEK-293 tau FRET biosensor measured by flow cytometer (C). […] Representative images of hyperphosphorylated tau intensity measured by AT8 and AT180 antibodies in three different regions of the hippocampus (GD, CA3 and CA1) (n = 11-12). (B) Quantification AT8 intensity, normalized to CA3 intensity of Sham animals. (C) Quantification of AT180 intensity, normalized to CA3 intensity of Sham animals (n = 9-12). […] Quantification of sarkosyl soluble (n = 10) (C) and insoluble species (D) using AT8 antibody (n = 10). Quantification of sarkosyl soluble (n = 10) (E) and insoluble species (F) using AT180 antibody (n = 10). […]

`COc1ccc2c(c1)CC(c1c[nH]c3ccc(OC)cc13)N2` (stereo not shown) [Compound 1, 5-Methoxy-3-(5-methoxyindolin-2-yl)-1H-indole]: the AT8 intensity levels entry in the assay on hyperphosphorylated tau is “reduced”. For the same molecule, the inhibition at 3 µM in assay [1] came to 100 ± 6.6%. Besides, in the assay with BV2 cells (10 µM, BV2 cells), the NO production result is “reduced to basal levels”. Further, the “nitric oxide (NO) in BV2 cells exposed to LPS” value with BV2 cells (over the concentrations tested) is “concentration-dependent reduction”.

The values are drawn from EP4467137A1, “TREATMENT OF FRONTOTEMPORAL DEMENTIA OR FRONTOTEMPORAL LOBAR DEMENTIA” (Universidad Autónoma de Madrid, priority 2023, dated 2024).
